Measurements taken from patent US10994015B2, “EGFR proteolysis targeting chimeric molecules and associated methods of use” (Arvinas Operations, Inc., priority 2016, dated 2021).

Legend:
EGFR Exon20NPG = EGFR Exon20NPG (Homo sapiens (Human), UniProt P00533, INS770NPG); assay: TR-FRET assay for ERBB kinases; format: biochemical; details: geometric mean if measured more than once
Outline: (§1)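 Phosphorylation of fluorescein-labeled poly-GluTyr read as TR-FRET using Tb-pY20 antibody after EDTA stop, with 340 nm excitation. Kinase reaction ran 10 min at room temperature following 10 min compound pre-incubation; substrate mix held 3 mM ATP and 30 µM peptide before addition. Buffer was HEPES pH 7.5.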

EGFR Exon 20 ASV (HeLa*) = EGFR Exon 20 ASV (HeLa*) (Homo sapiens (Human), UniProt P00533, DUP767-769); assay: EGFR protein degradation assay (Western blot); format: cell-based; details: 72 hours, 300 nM to 10 nM
[1] = biological target: EGFR-wt (MDA-MB-231 or MCF7 or A549 or OVCAR8) (Homo sapiens (Human), UniProt P00533); assay: EGFR protein degradation assay (Western blot); format: cell-based; details: 72 hours, 300 nM to 10 nM
Outline: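 EGFR degradation was assessed by Western blot. Cells expressing the appropriate EGFR were seeded in 6-well plates (300,000 cells per well) and adhered overnight. Media was removed, cells were washed with cold phosphate-buffered saline, scraped into 400 μl Cell Signaling lysis buffer plus protease inhibitor cocktail, and spun once at 10 000 rpm for 10 minutes. After BCA quantification, loading buffer and reducing agent were added. Gels loaded with 10 μg protein ran at 165V for 2 hours, and bands were visualized by chemiluminescence.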

EGFR L858R/T790M = EGFR L858R/T790M (Homo sapiens (Human), UniProt P00533, L858R/T790M); assay: TR-FRET assay for ERBB kinases; format: biochemical; details: geometric mean if measured more than once
Outline: (§2)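 Detection: LanthaScreen Tb-pY20 antibody with EDTA, emission at 490 and 520 nm after 340 nm excitation. Reaction: 10 min at room temperature following 10 min compound–enzyme pre-incubation, started by a substrate mix of 3 mM ATP and 30 uM fluorescein-poly-GluTyr in HEPES pH 7.5.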

EGFR WT = EGFR WT (Homo sapiens (Human), UniProt P00533); assay: TR-FRET assay for ERBB kinases; format: biochemical; details: geometric mean if measured more than once
Outline: as §2

EGFR L858R/T790M/C797S = EGFR L858R/T790M/C797S (Homo sapiens (Human), UniProt P00533, C797S/L858R/T790M); assay: TR-FRET assay for ERBB kinases; format: biochemical; details: geometric mean if measured more than once
Outline: as §2

EGFR Δ19/746/750 = EGFR Δ19/746/750 (Homo sapiens (Human), UniProt P00533, DEL746-750); assay: TR-FRET assay for ERBB kinases; format: biochemical; details: geometric mean if measured more than once
Outline: as §1

EGFR Δ19/746/750 T790M = EGFR Δ19/746/750 T790M (Homo sapiens (Human), UniProt P00533, DEL746-750/T790M); assay: TR-FRET assay for ERBB kinases; format: biochemical; details: geometric mean if measured more than once
Outline: as §1

[2] = biological target: EGFR L858R/T790M/C797S triple mutant (H520*) (Homo sapiens (Human), UniProt P00533, C797S/L858R/T790M); assay: EGFR protein degradation assay (Western blot); format: cell-based; details: 72 hours, 300 nM to 10 nM
Outline: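 EGFR loss in the triple-mutant line measured by immunoblot: clarified lysates normalised by BCA, run on 4-12% Bis-Tris gels, blotted to PVDF, probed with HRP anti-rabbit secondary. Before lysis, cells were dosed from 1, 0.3, 0.1, 0.03 and 0.01 mM DMSO stocks (not final concentrations) after overnight culture at 37° C.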

Sequence of EGFR L858R/T790M/C797S (P00533 25-1210 T790M/C797S/L858R): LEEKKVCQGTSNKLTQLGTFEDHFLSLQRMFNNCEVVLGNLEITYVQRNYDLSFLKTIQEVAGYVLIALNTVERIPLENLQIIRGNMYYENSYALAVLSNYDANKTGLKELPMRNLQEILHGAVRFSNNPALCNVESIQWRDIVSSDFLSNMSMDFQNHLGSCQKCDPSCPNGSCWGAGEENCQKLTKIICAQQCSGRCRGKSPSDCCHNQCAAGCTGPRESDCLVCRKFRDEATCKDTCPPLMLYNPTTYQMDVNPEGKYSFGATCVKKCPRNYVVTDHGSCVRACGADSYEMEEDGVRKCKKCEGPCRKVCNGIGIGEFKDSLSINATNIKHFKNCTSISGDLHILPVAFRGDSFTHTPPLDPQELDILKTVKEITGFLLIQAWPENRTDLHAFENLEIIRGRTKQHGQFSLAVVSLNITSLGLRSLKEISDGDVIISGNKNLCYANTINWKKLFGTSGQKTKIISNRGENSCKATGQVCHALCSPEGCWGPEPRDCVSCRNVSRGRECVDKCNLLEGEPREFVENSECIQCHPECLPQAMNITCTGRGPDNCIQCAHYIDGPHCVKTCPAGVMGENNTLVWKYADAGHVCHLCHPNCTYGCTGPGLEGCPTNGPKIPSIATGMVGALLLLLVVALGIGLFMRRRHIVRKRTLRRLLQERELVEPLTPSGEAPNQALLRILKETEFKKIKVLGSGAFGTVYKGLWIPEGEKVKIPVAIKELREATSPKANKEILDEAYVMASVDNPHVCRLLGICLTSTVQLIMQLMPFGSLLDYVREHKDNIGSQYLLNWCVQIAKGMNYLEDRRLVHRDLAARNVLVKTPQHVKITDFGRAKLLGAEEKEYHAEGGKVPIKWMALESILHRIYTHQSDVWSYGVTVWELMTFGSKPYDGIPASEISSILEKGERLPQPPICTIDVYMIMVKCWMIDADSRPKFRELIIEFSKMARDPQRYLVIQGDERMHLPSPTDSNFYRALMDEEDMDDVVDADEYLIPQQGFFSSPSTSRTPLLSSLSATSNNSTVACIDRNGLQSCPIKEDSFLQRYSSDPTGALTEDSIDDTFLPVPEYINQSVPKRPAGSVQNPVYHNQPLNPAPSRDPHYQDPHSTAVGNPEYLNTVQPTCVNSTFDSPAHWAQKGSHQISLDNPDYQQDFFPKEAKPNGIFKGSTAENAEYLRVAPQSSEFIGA
Sequence of EGFR Exon20NPG (P00533 other isoform, or with tags, fused parts or gaps del 1-694/ins NPG behind 770 limits assumed): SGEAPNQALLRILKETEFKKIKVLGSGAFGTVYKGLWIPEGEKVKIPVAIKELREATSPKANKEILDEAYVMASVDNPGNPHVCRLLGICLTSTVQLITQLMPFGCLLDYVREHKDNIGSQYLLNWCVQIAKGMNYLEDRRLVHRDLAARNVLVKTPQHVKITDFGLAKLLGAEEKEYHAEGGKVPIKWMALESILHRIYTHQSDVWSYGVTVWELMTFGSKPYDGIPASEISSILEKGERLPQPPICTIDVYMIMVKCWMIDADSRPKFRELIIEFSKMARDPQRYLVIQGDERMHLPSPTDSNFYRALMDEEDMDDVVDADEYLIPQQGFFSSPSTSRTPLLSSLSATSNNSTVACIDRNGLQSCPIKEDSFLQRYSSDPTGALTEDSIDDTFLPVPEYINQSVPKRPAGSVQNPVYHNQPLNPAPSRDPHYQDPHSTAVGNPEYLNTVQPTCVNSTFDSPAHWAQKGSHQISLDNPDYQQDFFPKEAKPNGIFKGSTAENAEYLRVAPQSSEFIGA
Sequence of EGFR Exon 20 ASV (HeLa*) (P00533 other isoform, or with tags, fused parts or gaps dup 767-769): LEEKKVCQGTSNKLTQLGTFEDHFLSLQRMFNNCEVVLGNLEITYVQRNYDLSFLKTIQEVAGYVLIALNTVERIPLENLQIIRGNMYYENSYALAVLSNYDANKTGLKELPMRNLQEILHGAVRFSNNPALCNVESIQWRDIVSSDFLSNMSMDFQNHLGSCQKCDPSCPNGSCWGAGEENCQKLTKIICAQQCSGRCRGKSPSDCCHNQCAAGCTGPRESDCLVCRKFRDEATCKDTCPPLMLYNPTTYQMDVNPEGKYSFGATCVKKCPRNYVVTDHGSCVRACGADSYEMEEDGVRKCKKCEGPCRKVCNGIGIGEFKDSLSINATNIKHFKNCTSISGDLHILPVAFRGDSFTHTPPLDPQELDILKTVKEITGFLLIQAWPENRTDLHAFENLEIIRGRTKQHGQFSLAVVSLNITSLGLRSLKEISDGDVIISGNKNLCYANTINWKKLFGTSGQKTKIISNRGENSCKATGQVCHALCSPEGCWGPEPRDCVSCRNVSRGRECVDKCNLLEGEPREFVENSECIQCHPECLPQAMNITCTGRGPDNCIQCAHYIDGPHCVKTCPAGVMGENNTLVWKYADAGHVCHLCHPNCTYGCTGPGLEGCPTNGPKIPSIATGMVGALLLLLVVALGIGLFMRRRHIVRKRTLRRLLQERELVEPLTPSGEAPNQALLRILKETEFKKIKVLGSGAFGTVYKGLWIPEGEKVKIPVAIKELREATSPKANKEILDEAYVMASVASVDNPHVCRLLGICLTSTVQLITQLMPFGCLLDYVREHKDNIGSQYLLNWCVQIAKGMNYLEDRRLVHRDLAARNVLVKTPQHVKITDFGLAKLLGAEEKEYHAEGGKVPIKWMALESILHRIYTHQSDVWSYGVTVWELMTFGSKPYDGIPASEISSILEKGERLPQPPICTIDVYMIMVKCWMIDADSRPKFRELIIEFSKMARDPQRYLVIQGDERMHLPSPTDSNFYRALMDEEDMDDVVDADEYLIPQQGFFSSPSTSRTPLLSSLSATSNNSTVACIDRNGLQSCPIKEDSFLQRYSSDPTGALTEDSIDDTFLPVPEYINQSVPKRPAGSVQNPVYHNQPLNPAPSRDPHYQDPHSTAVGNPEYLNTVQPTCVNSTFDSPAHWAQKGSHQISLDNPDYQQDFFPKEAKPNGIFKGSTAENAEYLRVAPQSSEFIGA
Sequence of EGFR L858R/T790M (P00533 25-1210 T790M/L858R): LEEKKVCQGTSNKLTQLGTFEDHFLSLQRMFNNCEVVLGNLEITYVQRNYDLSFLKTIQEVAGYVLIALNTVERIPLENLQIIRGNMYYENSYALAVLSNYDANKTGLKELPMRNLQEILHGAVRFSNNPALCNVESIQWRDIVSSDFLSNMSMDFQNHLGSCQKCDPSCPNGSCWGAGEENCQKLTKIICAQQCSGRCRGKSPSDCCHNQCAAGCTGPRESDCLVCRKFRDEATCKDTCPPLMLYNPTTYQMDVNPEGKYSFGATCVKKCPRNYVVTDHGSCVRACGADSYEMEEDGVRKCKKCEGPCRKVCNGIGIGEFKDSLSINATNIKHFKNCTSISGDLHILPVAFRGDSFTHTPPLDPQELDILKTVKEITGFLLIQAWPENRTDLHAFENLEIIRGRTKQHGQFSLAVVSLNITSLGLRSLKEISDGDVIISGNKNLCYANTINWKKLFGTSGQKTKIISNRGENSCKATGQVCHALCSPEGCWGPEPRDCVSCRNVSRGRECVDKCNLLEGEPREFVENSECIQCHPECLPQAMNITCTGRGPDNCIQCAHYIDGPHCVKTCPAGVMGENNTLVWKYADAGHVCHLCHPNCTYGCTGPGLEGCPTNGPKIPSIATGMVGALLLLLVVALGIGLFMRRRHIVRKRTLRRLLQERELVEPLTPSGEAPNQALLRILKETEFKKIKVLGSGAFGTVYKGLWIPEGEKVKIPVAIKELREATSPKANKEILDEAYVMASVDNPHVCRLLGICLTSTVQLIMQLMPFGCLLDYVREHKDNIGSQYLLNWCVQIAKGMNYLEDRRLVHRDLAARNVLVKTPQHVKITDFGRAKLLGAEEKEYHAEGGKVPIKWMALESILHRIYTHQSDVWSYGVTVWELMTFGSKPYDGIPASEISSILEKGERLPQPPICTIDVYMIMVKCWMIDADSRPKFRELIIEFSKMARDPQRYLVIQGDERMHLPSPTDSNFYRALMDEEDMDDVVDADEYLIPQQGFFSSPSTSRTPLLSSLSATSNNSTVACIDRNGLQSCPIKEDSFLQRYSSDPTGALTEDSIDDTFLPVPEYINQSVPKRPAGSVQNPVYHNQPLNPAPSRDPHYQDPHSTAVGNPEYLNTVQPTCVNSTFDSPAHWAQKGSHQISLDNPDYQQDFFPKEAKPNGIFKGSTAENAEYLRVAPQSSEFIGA
Sequence of EGFR Δ19/746/750 (P00533 other isoform, or with tags, fused parts or gaps del 1-694/del 746-750 limits assumed): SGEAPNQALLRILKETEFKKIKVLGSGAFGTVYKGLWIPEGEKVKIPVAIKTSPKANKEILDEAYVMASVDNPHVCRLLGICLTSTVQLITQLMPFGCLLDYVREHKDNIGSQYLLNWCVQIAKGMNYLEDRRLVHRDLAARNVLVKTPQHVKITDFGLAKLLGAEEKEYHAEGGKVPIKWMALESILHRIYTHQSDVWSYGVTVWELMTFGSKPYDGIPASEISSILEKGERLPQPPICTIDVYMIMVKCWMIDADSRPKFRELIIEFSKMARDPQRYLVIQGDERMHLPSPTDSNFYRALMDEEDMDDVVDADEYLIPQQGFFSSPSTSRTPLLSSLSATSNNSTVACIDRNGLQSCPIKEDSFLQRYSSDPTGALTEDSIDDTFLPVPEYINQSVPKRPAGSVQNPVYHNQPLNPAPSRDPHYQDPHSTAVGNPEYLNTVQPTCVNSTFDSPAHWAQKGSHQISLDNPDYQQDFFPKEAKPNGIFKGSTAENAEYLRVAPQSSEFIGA
Sequence of EGFR Δ19/746/750 T790M (P00533 other isoform, or with tags, fused parts or gaps T790M/del 1-694/del 746-750 limits assumed): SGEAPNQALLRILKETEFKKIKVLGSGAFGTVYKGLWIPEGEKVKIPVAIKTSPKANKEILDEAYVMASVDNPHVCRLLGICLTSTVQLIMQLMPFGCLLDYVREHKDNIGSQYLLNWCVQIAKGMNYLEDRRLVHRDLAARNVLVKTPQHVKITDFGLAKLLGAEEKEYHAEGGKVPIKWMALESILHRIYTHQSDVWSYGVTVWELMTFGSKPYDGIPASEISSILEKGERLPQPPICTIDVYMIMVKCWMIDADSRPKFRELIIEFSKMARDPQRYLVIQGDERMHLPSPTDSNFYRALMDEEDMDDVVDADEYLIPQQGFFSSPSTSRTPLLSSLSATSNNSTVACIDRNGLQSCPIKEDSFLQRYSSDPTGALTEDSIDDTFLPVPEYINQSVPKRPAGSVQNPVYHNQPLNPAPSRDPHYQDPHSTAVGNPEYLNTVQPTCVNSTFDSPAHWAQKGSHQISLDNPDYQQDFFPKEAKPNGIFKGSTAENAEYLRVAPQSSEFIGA

Row | SMILES | IC50 (EGFR Exon20NPG) [µM] | EGFR protein remaining, EGFR Exon 20 ASV (EGFR Exon 20 ASV (HeLa*)) | EGFR protein remaining, EGFR-wt [1] | IC50 (EGFR L858R/T790M) [µM] | IC50 (EGFR WT) [µM] | IC50 (EGFR L858R/T790M/C797S) [µM] | IC50 (EGFR Δ19/746/750) [µM] | IC50 (EGFR Δ19/746/750 T790M) [µM] | EGFR protein remaining, EGFR L858R/T790M/C797S triple mutant [2]
1 | O=C1CCC(N2C(=O)c3ccc(OCCOCCOCCN4CCN(Cc5ccc(-c6cc7c(NCc8ccccc8Cl)ncnc7[nH]6)cc5)CC4)cc3C2=O)C(=O)N1 (stereo not shown) [Example 17, 5-(2-(2-(2-(4-(4-(4-((2-chlorobenzyl)amino)-7H-pyrrolo[2,3-d]pyrimidin-6-yl)benzyl)piperazin-1-yl)ethoxy)ethoxy)ethoxy)-2-(2,6-dioxopiperidin-3-yl)isoindoline-1,3-dione] | 0.19 | C (>80% EGFR protein remaining after 72 hours of incubation with the test compound at a concentration of 300 nM) | C (>80% EGFR protein remaining after 72 hours of incubation with the test compound at a concentration of 300 nM) | 7.2 | 0.22 | 4.9 | – | – | –
2 | Cc1ncsc1-c1ccc(CNC(=O)[C@@H]2C[C@@H](O)CN2C(=O)[C@H](C(C)C)N2Cc3ccccc3C2=O)c(OCCOCCOCCN2CCN(Cc3ccc(-c4cc5c(NCc6ccccc6Cl)ncnc5[nH]4)cc3)CC2)c1 [Example 108, (2S,4R)—N-(2-(2-(2-(2-(4-(4-(4-((2-Chlorobenzyl)amino)-7H-pyrrolo[2,3-d]pyrimidin-6-yl)benzyl)piperazin-1-yl)ethoxy)ethoxy)ethoxy)-4-(4-methylthiazol-5-yl)benzyl)-4-hydroxy-1-((S)-3-methyl-2-(1-oxoisoindolin-2-yl)butanoyl)pyrrolidine-2-carboxamide] | 0.98 | C (>80% EGFR protein remaining after 72 hours of incubation with the test compound at a concentration of 300 nM) | C (>80% EGFR protein remaining after 72 hours of incubation with the test compound at a concentration of 300 nM) | 10 | 0.77 | 7.8 | – | – | –
3 | Cc1ncsc1-c1ccc([C@H](C)NC(=O)[C@@H]2C[C@@H](O)CN2C(=O)[C@@H](NC(=O)CN2CCN(CCOCCOCCOCCOCC#Cc3cccc4c3C(=O)N(C(C(=O)Nc3nccs3)c3cc(F)ccc3O)C4)CC2)C(C)(C)C)cc1 (stereo partly shown) [compound 309] | – | – | – | 0.12 | 0.0072 | 0.025 | 1.9 | 5.1 | C (>80% EGFR protein remaining after 72 hours of incubation with the test compound at a concentration of 300 nM)
4 | Cc1ncsc1-c1ccc(CNC(=O)[C@@H]2C[C@@H](O)CN2C(=O)[C@H](C(C)C)N2Cc3ccccc3C2=O)c(OCCOCCOCCOCCOCCN2CCN(Cc3ccc(-c4cc5c(NCc6ccccc6Cl)ncnc5[nH]4)cc3)CC2)c1 [compound 110] | 1.8 | C (>80% EGFR protein remaining after 72 hours of incubation with the test compound at a concentration of 300 nM) | C (>80% EGFR protein remaining after 72 hours of incubation with the test compound at a concentration of 300 nM) | 8.6 | 0.77 | 12 | – | – | –
5 | Cc1ncsc1-c1ccc(CNC(=O)[C@@H]2C[C@@H](O)CN2C(=O)[C@H](C(C)C)N2Cc3ccccc3C2=O)c(OCCOCCOCCOCCN2CCN(Cc3ccc(-c4cc5c(NCc6ccccc6Cl)ncnc5[nH]4)cc3)CC2)c1 [compound 109] | 0.58 | C (>80% EGFR protein remaining after 72 hours of incubation with the test compound at a concentration of 300 nM) | C (>80% EGFR protein remaining after 72 hours of incubation with the test compound at a concentration of 300 nM) | 6 | 0.18 | 8.9 | – | – | –
6 | O=C1CCC(N2C(=O)c3ccc(OCCN4CCN(Cc5ccc(C6Cc7c(NCc8ccccc8Cl)ncnc7N6)cc5)CC4)cc3C2=O)C(=O)N1 (stereo not shown) [compound 101] | 0.069 | C (>80% EGFR protein remaining after 72 hours of incubation with the test compound at a concentration of 300 nM) | C (>80% EGFR protein remaining after 72 hours of incubation with the test compound at a concentration of 300 nM) | 3.4 | 0.012 | 3.6 | – | – | –
7 | O=C1CCC(N2C(=O)c3ccc(OCCOCCOCCOCCOCCN4CCN(Cc5ccc(C6Cc7c(NCc8ccccc8Cl)ncnc7N6)cc5)CC4)cc3C2=O)C(=O)N1 (stereo not shown) [compound 104] | 0.51 | C (>80% EGFR protein remaining after 72 hours of incubation with the test compound at a concentration of 300 nM) | C (>80% EGFR protein remaining after 72 hours of incubation with the test compound at a concentration of 300 nM) | 12 | 0.59 | 8.2 | – | – | –
8 | O=C1CCC(N2C(=O)c3ccc(OCCOCCOCCOCCOCCOCCN4CCN(Cc5ccc(C6Cc7c(NCc8ccccc8Cl)ncnc7N6)cc5)CC4)cc3C2=O)C(=O)N1 (stereo not shown) [compound 105] | 0.82 | C (>80% EGFR protein remaining after 72 hours of incubation with the test compound at a concentration of 300 nM) | C (>80% EGFR protein remaining after 72 hours of incubation with the test compound at a concentration of 300 nM) | > 30 | 0.97 | 24 | – | – | –
9 | Cc1ncsc1-c1ccc(CNC(=O)[C@@H]2C[C@@H](O)CN2C(=O)[C@H](C(C)C)N2Cc3ccccc3C2=O)c(OCCOCCN2CCN(Cc3ccc(-c4cc5c(NCc6ccccc6Cl)ncnc5[nH]4)cc3)CC2)c1 [compound 107] | 0.6 | C (>80% EGFR protein remaining after 72 hours of incubation with the test compound at a concentration of 300 nM) | C (>80% EGFR protein remaining after 72 hours of incubation with the test compound at a concentration of 300 nM) | 6.7 | 0.14 | 6 | – | – | –
10 | O=C1CCC(N2C(=O)c3ccc(OCCOCCN4CCN(Cc5ccc(-c6cc7c(NCc8ccccc8Cl)ncnc7[nH]6)cc5)CC4)cc3C2=O)C(=O)N1 (stereo not shown) [Example 102, 5-(2-(2-(4-(4-(4-((2-chlorobenzyl)amino)-7H-pyrrolo[2,3-d]pyrimidin-6-yl)benzyl)piperazin-1-yl)ethoxy)ethoxy)-2-(2,6-dioxopiperidin-3-yl)isoindoline-1,3-dione] | – | C (>80% EGFR protein remaining after 72 hours of incubation with the test compound at a concentration of 300 nM) | C (>80% EGFR protein remaining after 72 hours of incubation with the test compound at a concentration of 300 nM) | – | – | – | – | – | –
11 | Cc1ncsc1-c1ccc(CNC(=O)[C@@H]2C[C@@H](O)CN2C(=O)[C@H](C(C)C)N2Cc3ccccc3C2=O)c(OCCN2CCN(Cc3ccc(-c4cc5c(NCc6ccccc6Cl)ncnc5[nH]4)cc3)CC2)c1 [Example 106, (2S,4R)—N-(2-(2-(4-(4-(4-((2-chlorobenzyl)amino)-7H-pyrrolo[2,3-d]pyrimidin-6-yl)benzyl)piperazin-1-yl)ethoxy)-4-(4-methylthiazol-5-yl)benzyl)-4-hydroxy-1-((S)-3-methyl-2-(1-oxoisoindolin-2-yl)butanoyl)pyrrolidine-2-carboxamide] | 1.9 | C (>80% EGFR protein remaining after 72 hours of incubation with the test compound at a concentration of 300 nM) | C (>80% EGFR protein remaining after 72 hours of incubation with the test compound at a concentration of 300 nM) | 4.9 | 0.47 | 5.2 | – | – | –
12 | Cc1ncsc1-c1ccc(CNC(=O)[C@@H]2C[C@@H](O)CN2C(=O)[C@@H](NC(=O)COCCOCCOCCOc2ccc(-c3cc4c(NCc5ccccc5Cl)ncnc4[nH]3)cc2)C(C)(C)C)cc1 [Example 14, (2S,4R)-1-((S)-2-(tert-butyl)-14-(4-(4-((2-chlorobenzyl)amino)-7H-pyrrolo[2,3-d]pyrimidin-6-yl)phenoxy)-4-oxo-6,9,12-trioxa-3-azatetradecanoyl)-4-hydroxy-N-(4-(4-methylthiazol-5-yl)benzyl)pyrrolidine-2-carboxamide] | – | C (>80% EGFR protein remaining after 72 hours of incubation with the test compound at a concentration of 300 nM) | C (>80% EGFR protein remaining after 72 hours of incubation with the test compound at a concentration of 300 nM) | – | – | – | – | – | –
